This note sets out measurements from patent US20130123357A1, “Methods for Providing Enhanced Resveratrol Activity Using 4-Acetoxy-Resveratrol” (BRIGHAM YOUNG UNIVERSITY, priority 2010, published 2013).

What all share (type): cell-based
Holding throughout (details): 1.0% 4AR in DMSO, human skin equivalent, 24 hours, mRNA by qPCR
A general note: In qPCR the cycle at which signal appears reflects the starting amount.

The subject of test [1] is IL-1RII (interleukin 1RII). Nature of the test: Gene array qPCR, human dermal equivalent: IL-1RII. From the text: (§1) In this gene array experiment, we examined the ability of 4AR at a one percent concentration in DMSO (where 100% DMSO served as the vehicle) to either stimulate or inhibit several important genes and quantify directly the transcribed messenger RNA (mRNA) levels by Taqman real time PCR. The test material was placed onto a biological barrier (human dermal equivalent) using a MatTek “ready-to-use” in vitro organotypic tissue equivalent, based on well-documented and validated protocols, using the EpiDerm™ Model EPI-200 Kit. The MatTek kits uses normal (non-transformed) donated human cells as the basis for all of its tissue equivalents. These cells are grown (cultured) in standard Millipore Millicell™ Single Well Tissue Culture Plate Inserts at the air liquid interface or ALI. Apical (top) surface of tissue is exposed to air allowing for direct application of test articles. […] Once the 4 AR test material penetrated the human skin barrier equivalent the gene chip was activated and subsequently mRNA levels were quantified and the results represent stimulation or inhibition of a specific gene.
(§2) To investigate the effects of 4AR on the expression of genes associated with the extracellular matrix (ECM) of the skin, qPCR experiments were conducted using the tissue cultures (model system described above) with subsequent quantification of mRNA levels from […] tissue/cells. […]

Test [2] deals with COX 2 (PTGS2). As to the kind of experiment: Gene array qPCR, human dermal equivalent: COX 2.
From the text: as §1, §2

Test [3] concerns S100 Calcium binding protein A9. Nature of the test: Gene array qPCR, human dermal equivalent: S100 A9.
From the text: as §1, §2

Test [4] has as its system TNFRSF1A (Tumor necrosis factor receptor superfamily, member 1A). Nature of the test: Gene array qPCR, human dermal equivalent: TNFRSF1A.
From the text: as §1, §2

For test [5], the system named is Superoxide dismutase 1, soluble. As to the kind of experiment: Gene array qPCR, human dermal equivalent: SOD1.
From the text: as §1, §2

Test [6] relates to Superoxide dismutase 2, mitochondrial. Nature of the test: Gene array qPCR, human dermal equivalent: SOD2.
From the text: as §1, §2

In test [7] the test system is lysyl oxidase (LOX). As to the kind of experiment: Gene array qPCR, human dermal equivalent: LOX.
From the text: as §1, §2

In test [8] the test system is Metallothionein 2. Nature of the test: Gene array qPCR, human dermal equivalent: Metallothionein 2.
From the text: as §1, §2

Test [9] relates to Metallothionein 1. As to the kind of experiment: Gene array qPCR, human dermal equivalent: Metallothionein 1.
From the text: as §1, §2

Test [10] has as its system Catalase. As to the kind of experiment: Gene array qPCR, human dermal equivalent: Catalase.
From the text: as §1, §2

Test [11] relates to TGF (transforming growth factor) beta type II receptor. As to the kind of experiment: Gene array qPCR, human dermal equivalent: TGF beta type II receptor.
From the text: as §1, §2

The subject of test [12] is HBEGF (Heparin-binding EGF-like growth factor). Nature of the test: Gene array qPCR, human dermal equivalent: HBEGF.
From the text: as §1, §2

In test [13] the test system is TGF (transforming growth factor) beta. As to the kind of experiment: Gene array qPCR, human dermal equivalent: TGF beta.
From the text: as §1, §2

The test system of test [14] is IGF1 (Insulin-like growth factor 1). Nature of the test: Gene array qPCR, human dermal equivalent: IGF1.
From the text: as §1, §2

Test [15] relates to Nerve growth factor. Nature of the test: Gene array qPCR, human dermal equivalent: Nerve growth factor.
From the text: as §1, §2

Test [16] deals with Desmocollin 1. As to the kind of experiment: Gene array qPCR, human dermal equivalent: Desmocollin 1.
From the text: as §1, §2

Test [17] concerns Desmoglein 3. Nature of the test: Gene array qPCR, human dermal equivalent: Desmoglein 3.
From the text: as §1, §2

The test system of test [18] is JunD. As to the kind of experiment: Gene array qPCR, human dermal equivalent: JunD.
From the text: as §1, §2

The test system of test [19] is Fos (FBJ murine osteosarcoma viral oncogene). As to the kind of experiment: Gene array qPCR, human dermal equivalent: Fos.
From the text: as §1, §2

In test [20] the test system is FosB (FBJ murine osteosarcoma viral oncogene homolog B). As to the kind of experiment: Gene array qPCR, human dermal equivalent: FosB.
From the text: as §1, §2

The subject of test [21] is Fibrillin. As to the kind of experiment: Gene array qPCR, human dermal equivalent: Fibrillin.
From the text: as §1, §2

In test [22] the test system is Laminin 1B. Nature of the test: Gene array qPCR, human dermal equivalent: Laminin 1B.
From the text: as §1, §2

For test [23], the system named is PCNA (Proliferating Cell Nuclear Antigen). Nature of the test: Gene array qPCR, human dermal equivalent: PCNA.
From the text: as §1, §2

For test [24], the system named is Cytokeratin 2E. Nature of the test: Gene array qPCR, human dermal equivalent: Cytokeratin 2E.
From the text: as §1, §2

Regarding `CC(=O)Oc1ccc(C=Cc2cc(O)cc(O)c2)cc1` [4AR, 3,5-dihydroxy-4′-acetoxy stilbene], the “IL-1RII decreased by” value in test [1] is 1.9-fold. Also, the “COX 2 decreased by” value in test [2] is 1.7-fold. In addition, in [3], the “S100 Calcium binding protein A9 decreased by” value was 1.6-fold. In addition, the “TNFRSF1A decreased by” value in test [4] is listed as 1.4-fold. Further, the “Superoxide dismutase 1, soluble increased by” value in test [5] was 1.6-fold. Further, the “Superoxide dismutase 2, mitochondrial increased by” value in test [6] is 1.7-fold. In addition, the “Lysyl oxidase increased by” value in test [7] is 1.9-fold. In addition, the “Metallothionein 2 increased by” value in test [8] is 3.4-fold. In addition, in [9], the “Metallothionein 1 increased by” value is 64.0-fold. The “Catalase increased by” value in test [10] was 1.6-fold. In addition, the “TGF beta type II receptor increased by” value in test [11] was 1.7-fold. Besides, in [12], the “HBEGF increased by” value is listed as 1.9-fold. Moreover, the “TGF beta increased by” value in test [13] is 2.0-fold. Also, in [14], the “IGF1 increased by” value is on record as 2.6-fold. The “Nerve growth factor increased by” value in test [15] is listed as 6.7-fold. The “Desmocollin 1 decreased by” value in test [16] is “by 2.4-fold”. Moreover, in [17], the “Desmoglein 3 decreased by” value is given as “by 1.9-fold”. The “JunD increased by” value in [18] is on record as 2.1-fold. The “Fos increased by” value in test [19] is 3.4-fold. Also, in test [20], the “FosB increased by” value was 8.2-fold. Further, the “Fibrillin increased by” value in test [21] was 1.3-fold with. For the same compound, the “Laminin 1B increased by” value in test [22] is on record as 1.4-fold with. Besides, the “PCNA increased by” value in test [23] is 5.4-fold with. In test [24], the “CK 2E decreased by” value is reported as 3.5-fold with.
